System: proteasome
Experiment: Proteasome activity assay in SK-N-SH cells
Format: cell-based, human
Experimental: The CL2006 strain, SK-N-SH cells, and brain tissues were sonicated in a lysis buffer (150 mM NaCl, 50 mM HEPES, 2 mM DTT, 20 mM NaF, 5 mM EDTA, 2.5 mM sodium pyrophosphate, 1 mM sodium orthovanadate, and 1 mM α-glycerophosphoric acid) and then centrifuged at 15,000 g at 4° C. for 15 min. Total protein was assayed using BCA kit and 20 μg protein was mixed with 140 μM suc-leu-leu-val-tyr-7-amino-4-methylcou-marin (AMC) in a proteasome activity assay buffer (150 mM NaCl, 50 mM HEPES [pH 7.4], 5 mM ATP, and 5 mM EDTA), and then the fluorescence (excitation 380 nm and emission 460 nm) was measured every 10 min over 3 h using a microplate reader. The assay was performed with and without the proteasome inhibitor MG132 (10 μM).

With CC12CCC(C1)C(C)(C)C2O (centres unmarked) [Fenchol] the proteasomal activity was “significantly increased” and the “proteasome activity in cells also treated with Aβ” value (Fenchol plus Aβ) was “higher”.

From US12447135B2 (University of South Florida, priority 2021, dated 2025)
